Counter-ions that a name gives are not always drawn.
How the values were obtained:
[1] = target: T1, carboxylesterase 2 (CES2) (Homo sapiens, UniProt O00748); assay: Carboxylesterase hydrolysis IDMF v DRF; format: in vitro ADME; conditions: 20 μl of 1 mg/ml CES2, 37° C., pH 7.4
T1 sequence (O00748 27-559): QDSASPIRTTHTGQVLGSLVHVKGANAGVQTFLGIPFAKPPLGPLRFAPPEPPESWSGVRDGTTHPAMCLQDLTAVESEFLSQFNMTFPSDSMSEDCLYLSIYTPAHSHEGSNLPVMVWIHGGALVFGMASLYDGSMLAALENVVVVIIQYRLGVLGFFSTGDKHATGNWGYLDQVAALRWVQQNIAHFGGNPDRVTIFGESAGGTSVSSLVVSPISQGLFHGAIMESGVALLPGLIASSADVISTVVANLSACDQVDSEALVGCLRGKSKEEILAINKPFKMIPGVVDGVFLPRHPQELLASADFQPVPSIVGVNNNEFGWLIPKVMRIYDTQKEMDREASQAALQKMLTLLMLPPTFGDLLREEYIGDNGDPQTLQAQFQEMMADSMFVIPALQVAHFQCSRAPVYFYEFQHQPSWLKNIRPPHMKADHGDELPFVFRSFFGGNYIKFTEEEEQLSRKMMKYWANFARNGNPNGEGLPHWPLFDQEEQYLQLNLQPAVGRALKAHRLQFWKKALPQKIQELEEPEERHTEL
Procedure: 20 μl of 1 mg/ml carboxylesterase 2 (CES2) was added to each solution and the solutions incubated at 37° C. for the time periods set forth in Table 5. […] Although tolerable for normal patients, HES is undesirable and detrimental for those individuals have kidney and/or liver issues

[2] = test system: NFE2L2 (NRF2) binding sites; assay: Enrichment of NFE2L2 (NRF2) and other binding sites upstream of IDMF-regulated genes; format: cell-based, human
Procedure: RNA sample processing and microarray hybridizations were performed using the Affymetrix Human Genome U133 Plus 2.0 array platform. DNA microarray samples evaluated included IDMF- and vehicle-treated KCs (n=2 replicates per group). Samples were normalized using the robust multichip average (RMA) algorithm. Identification of probe sets with detectable expression was performed using the MAS 5.0 method, which identifies probe sets with above-background expression based upon the Wilcoxon signed rank test. To limit redundancy in downstream analyses, a single probe set was chosen to represent each protein-coding human gene featured on the microarray platform. This representative was chosen as the probe set with highest expression for each protein-coding human gene. These probe sets were then additionally filtered to include only those with detectable expression in at least 1 of the 4 samples (P<0.05, Wilcoxon signed rank test). Overall, this yielded a total of 12330 protein-coding genes that were included in analyses, with each gene represented by a single representative probe set. Bayesian linear models and moderated t-statistics were then used to evaluate differential expression for each of the 12330 genes (IDMF vs. CTL treatment; R package: limma). To control the false discovery rate (FDR), raw p-values generated from linear model analyses were adjusted using the Benjamini-Hochberg method.
As noted in the background section above, the transcription factor nuclear factor (erythroid-derived 2)-like 2 (NFE2L2/NRF2) has previously been associated with multiple sclerosis. In this study, IDMF-regulated genes were evaluated to determine the extent to which IDMF led to the enrichment of NFE2L2/NRF2 binding sites in promoter-proximal regions. For these analyses, a NFE2L2/NRF2 binding site was obtained from the JASPAR database (JASPAR ID: MA0150). This binding site partially matches the consensus sequence 5-[A/G]TGAC—AGCA-3: additional information can be obtained from http://jaspar.genereg.net/cgi-bin/jaspar_db.pl?ID=MA0150.1&rm=present&collection=CORE. Tests for enrichment were performed by scanning regions 1 kb, 2 kb or 5 kb upstream of protein-coding genes, including either all sequence (conserved=No) or only sequences conserved among mammalian species (conserved=Yes). A positive Z statistic indicates a trend towards increased NFE2L2 (NRF2) binding sites in sequences upstream of IDMF-increased […] (DEGs), as compared to all other expressed genes). P-values indicate the significance of the reported Z statistic (semiparametric generalized additive logistic models). Predicted targets include IDMF-increased DEGs with the NFE2L2 (NRF2) binding site identified within the scanned upstream region.

COC(=O)/C=C/C(=O)O[C@H]1CO[C@H]2[C@@H]1OC[C@H]2OC(=O)/C=C/C(=O)OC [IDMF, isosorbide di-(methyl fumarate)]
remaining parent compound ([1]; 0 minutes): 1.086 mM | remaining parent compound ([1]; 15 minutes): 0.113 mM | enrichment of NF-kappaB binding sites upstream of IDMF-decreased genes ([2]; FDR<0.10 with FC<0.67, P=1.16E-08): strongly enriched | Z Statistic, enrichment of NFE2L2 (NRF2) binding sites upstream of IDMF-increased DEGs ([2]; Region 1 kb, Conserved No): 4.74 | Z Statistic, enrichment of NFE2L2 (NRF2) binding sites upstream of IDMF-increased DEGs ([2]; Region 1 kb, Conserved Yes): 5.91 | Z Statistic, enrichment of NFE2L2 (NRF2) binding sites upstream of IDMF-increased DEGs ([2]; Region 2 kb, Conserved No): 3.37 | Z Statistic, enrichment of NFE2L2 (NRF2) binding sites upstream of IDMF-increased DEGs ([2]; Region 2 kb, Conserved Yes): 3.21 | Z Statistic, enrichment of NFE2L2 (NRF2) binding sites upstream of IDMF-increased DEGs ([2]; Region 5 kb, Conserved No): 2.11 | Z Statistic, enrichment of NFE2L2 (NRF2) binding sites upstream of IDMF-increased DEGs ([2]; Region 5 kb, Conserved Yes): 1.05
